In US11986450B2, “Methods and compositions for treating infection and inflammation with selenocyanate” (National Jewish Health, priority 2017, dated 2024):

Key:
P. aeruginosa: PAO1 [1] = experiment: Viability after HOSCN exposure
E. coli: AB1157 = experiment: HOSCN reductase activity
P. aeruginosa: AMT0105L = experiment: Viability after HOSCN exposure; conditions: late disease antibiotic-resistant CF isolate
[2] = test system: Human bronchial epithelial (16HBE) cells; experiment: HOSCN reductase activity; conditions: human 16HBE cells
P. aeruginosa: AMT0027L [3] = experiment: Viability after HOSCN exposure; conditions: late disease antibiotic-resistant CF isolate
P. aeruginosa: AMT0058L [4] = experiment: Viability after HOSCN exposure; conditions: late disease antibiotic-resistant CF isolate
[5] = Viability after HOSCN exposure; conditions: human, human bronchial epithelial (16HBE) cells
B. dolsa = experiment: Bacterial sensitivity towards HOSCN killing; format: cell-based, Burkholderia cepacia complex (BCC); conditions: CF sputum isolate, HOSCN flux for 2 hours, GOX/LPO/SCN system, pH 7.4
Description: (§1) FIGS. 11A-11D. […] A lactoperoxidase (LPO) system was used to generate increasing fluxes of either HOSCN or HOSeCN in presence of 400 μM of either ^−SCN or ^−SeCN. LPO in the presence of a hydrogen peroxide generating system (glucose oxidase, GOX) can convert both thiocyanate and selenocyante to their respective hypopseudohalous acid species (HOSCN and HOSeCN) that are biocides. […] Bacterial inoculums (10^6 colony forming units, CFU) were incubated with host defense system for 2 hours at room temperature and bacteria were plated on LB agar plates and cell viability was determined by dilution and counting CFUs.
(§2) LPO in the presence of a hydrogen peroxide generating system (glucose oxidase, GOX) can convert both thiocyanate and selenocyante to their respective hypopseudohalous acid species (HOSCN and HOSeCN) that are biocides. […] Bacterial inoculums (10^6 colony forming units, CFU) were incubated with host defense system for 2 hours at room temperature and bacteria were plated on LB agar plates and cell viability was determined by dilution and counting CFUs. Lethal concentrations that kill 50% of bacteria (LC50) were determined by non-linear curve fitting the data.
(§3) Bacteria were incubated for 2 hour with LPO, ^−SCN or SeCN, glucose and increasing amounts of GOX. The flux (HOX) of either HOSCN or HOSeCN was determined from standard curves of GOX/LPO and either HOSCN or HOSeCN. LC50 values were determined by curve fitting the data with nonlinear regression of log (agonist) vs normalized response.

B. multivorans 41 = experiment: Bacterial sensitivity towards HOSCN killing; format: cell-based, Burkholderia cepacia complex (BCC); conditions: B. multivorans 41, CF sputum isolate; HOSCN flux for 2 hours, GOX/LPO/SCN system, pH 7.4
Description: as §1, §2, §3

B. cenocepacia = experiment: Bacterial sensitivity towards HOSCN killing; format: cell-based, Burkholderia cepacia complex (BCC); conditions: CF sputum isolate, HOSCN flux for 2 hours, GOX/LPO/SCN system, pH 7.4
Description: as §1, §2, §3

B. vietnameisis = experiment: Bacterial sensitivity towards HOSCN killing; format: cell-based, Burkholderia cepacia complex (BCC); conditions: HOSCN flux for 2 hours, GOX/LPO/SCN system, pH 7.4
Description: as §1, §2, §3

P. aeruginosa: AMT0027L [6] = experiment: HOSCN reductase activity
PA 39 = experiment: Bacterial sensitivity towards HOSCN killing; format: cell-based, Pseudomonas aeruginosa (PA); conditions: PA 39, CF sputum isolate; HOSCN flux for 2 hours, GOX/LPO/SCN system, pH 7.4
Description: as §1, §2, §3

PA-T = experiment: Bacterial sensitivity towards HOSCN killing; format: cell-based, Pseudomonas aeruginosa (PA); conditions: CF sputum isolate, HOSCN flux for 2 hours, GOX/LPO/SCN system, pH 7.4
Description: as §1, §2, §3

AMT-9 = experiment: Bacterial sensitivity towards HOSCN killing; format: cell-based, Pseudomonas aeruginosa (PA); conditions: AMT-9, CF sputum isolate; HOSCN flux for 2 hours, GOX/LPO/SCN system, pH 7.4
Description: as §1, §2, §3

PAO1 = experiment: Bacterial sensitivity towards HOSCN killing; format: cell-based, Pseudomonas aeruginosa (PA); conditions: HOSCN flux for 2 hours, GOX/LPO/SCN system, pH 7.4
Description: as §1, §2, §3

PA-X = experiment: Bacterial sensitivity towards HOSCN killing; format: cell-based, Pseudomonas aeruginosa (PA); conditions: CF sputum isolate, HOSCN flux for 2 hours, GOX/LPO/SCN system, pH 7.4
Description: as §1, §2, §3

MRSA 46 = experiment: Bacterial sensitivity towards HOSCN killing; format: cell-based, methicillin-resistant Staphylococcus aureus (MRSA); conditions: MRSA 46, CF sputum isolate; HOSCN flux for 2 hours, GOX/LPO/SCN system, pH 7.4
Description: as §1, §2, §3

MRSA 44 = experiment: Bacterial sensitivity towards HOSCN killing; format: cell-based, methicillin-resistant Staphylococcus aureus (MRSA); conditions: MRSA 44, CF sputum isolate; HOSCN flux for 2 hours, GOX/LPO/SCN system, pH 7.4
Description: as §1, §2, §3

MRSA 43 = experiment: Bacterial sensitivity towards HOSCN killing; format: cell-based, methicillin-resistant Staphylococcus aureus (MRSA); conditions: MRSA 43, CF sputum isolate; HOSCN flux for 2 hours, GOX/LPO/SCN system, pH 7.4
Description: as §1, §2, §3

MRSA 45 = experiment: Bacterial sensitivity towards HOSCN killing; format: cell-based, methicillin-resistant Staphylococcus aureus (MRSA); conditions: MRSA 45, CF sputum isolate; HOSCN flux for 2 hours, GOX/LPO/SCN system, pH 7.4
Description: as §1, §2, §3

P. aeruginosa: AMT0058L [7] = experiment: HOSCN reductase activity
P. aeruginosa: AMT0009L [8] = experiment: HOSCN reductase activity
P. aeruginosa: PAO1 [9] = experiment: HOSCN reductase activity
P. aeruginosa: AMT0009L [10] = experiment: Viability after HOSCN exposure; conditions: late disease antibiotic-resistant CF isolate
[11] = molecular target: recombinant E. coli Cys-TrxR (Escherichia coli, UniProt P0A9P4); experiment: Kinetic analysis of HOSCN metabolism and inhibition; format: biochemical
Chain of recombinant E. coli Cys-TrxR (P0A9P4 whole entry, the tested form may be a part): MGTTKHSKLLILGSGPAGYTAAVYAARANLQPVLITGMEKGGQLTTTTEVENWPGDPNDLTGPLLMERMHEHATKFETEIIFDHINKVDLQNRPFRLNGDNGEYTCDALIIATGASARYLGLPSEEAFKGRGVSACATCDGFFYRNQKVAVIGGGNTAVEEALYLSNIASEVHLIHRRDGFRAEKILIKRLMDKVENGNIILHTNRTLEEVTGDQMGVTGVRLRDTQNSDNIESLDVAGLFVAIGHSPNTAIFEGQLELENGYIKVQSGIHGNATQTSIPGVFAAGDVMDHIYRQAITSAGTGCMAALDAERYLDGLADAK
Description: FIGS. 3A-3B. Kinetic analysis of HOSCN metabolism by recombinant mouse Sec-TrxR and recombinant E. coli Cys-TrxR. […] Sec-TrxR forms that lack a selenocysteine (Sec489Cys) or truncated by the last 8 amino acids (D8) had diminished activity.

N#CSO [HOSCN, hypothiocyanite]
Viability (%) (P. aeruginosa: PAO1 [1]): 0%
Apparent Vmax (HOSCN reductase activity) (E. coli: AB1157): ND^c (No activity detected. Limit of detection = 0.5 nmol mg^−1 min^−1)
Viability (%) (P. aeruginosa: AMT0105L): 0%
Apparent Vmax (HOSCN reductase activity) [2]: 14.7 ± 1.0 nmol/mg/min
Viability (%) (P. aeruginosa: AMT0027L [3]): 0%
Viability (%) (P. aeruginosa: AMT0058L [4]): 0.7 ± 0.4%
viability [5]: 96.3 ± 1.6%
HOSCN IC50 (B. dolsa): 79 µM/h
HOSCN IC50 (B. multivorans 41): 18 µM/h
HOSCN IC50 (B. cenocepacia): 59 µM/h
HOSCN IC50 (B. vietnameisis): 64 µM/h
Apparent Vmax (HOSCN reductase activity) (P. aeruginosa: AMT0027L [6]): ND^c (No activity detected. Limit of detection = 0.5 nmol mg^−1 min^−1)
HOSCN IC50 (PA 39): 5 µM/h
HOSCN IC50 (PA-T): 48 µM/h
HOSCN IC50 (AMT-9): 5 µM/h
HOSCN IC50 (PAO1): 18 µM/h
HOSCN IC50 (PA-X): 13 µM/h
HOSCN IC50 (MRSA 46): 10 µM/h
HOSCN IC50 (MRSA 44): 260 µM/h
HOSCN IC50 (MRSA 43): 450 µM/h
HOSCN IC50 (MRSA 45): 24 µM/h
Apparent Vmax (HOSCN reductase activity) (P. aeruginosa: AMT0058L [7]): 1.2 ± 0.2 nmol/mg/min
Apparent Vmax (HOSCN reductase activity) (P. aeruginosa: AMT0009L [8]): 0.8 ± 0.3 nmol/mg/min
Apparent Vmax (HOSCN reductase activity) (P. aeruginosa: PAO1 [9]): ND^c (No activity detected. Limit of detection = 0.5 nmol mg^−1 min^−1)
Viability (%) (P. aeruginosa: AMT0009L [10]): 4.2 ± 2.1%
IC50 [11]: 2750 nM
HOSCN metabolism activity ([11]; similar conditions): no measurable activity
